Experimental data published in US10918741B2, “PSMA-targeting imaging agents” (THE CLEVELAND CLINIC FOUNDATION, priority 2014, dated 2021).
“Also recorded” adds a separate entry of the source. Read-outs that look alike come from different tables or passages of the source. Each block holds one compound with its values, some of them ahead of it. *1 amine or outer side, *2 acyl side, *3 side chain or, on linkers, in order; H or OH if unused. Where a SMILES comes first, the peptide text is derived from it. [ ]: non-standard residue; d: D form. γGlu = O=C(O)[C@H](CCC(=O)[*:2])N[*:1]; X1 = O=C(C1CCC(CN[*:1])CC1)[*:2]; CO = O=C([*:1])[*:2]; Ahx = NCCCCCC(=O)O

Key:
PSMA [1] = biological target: T1, PSMA (Homo sapiens, UniProt Q04609); assay: Competitive binding assay; design: endogenous in cells; host or cells: LNCaP (endogenous PSMA, from ATCC) or PC3-PIP (retrovirally transformed PSMA-positive PC3, from Dr. Michel Sadelain)
Method: The prostate cancer cell line LNCaP (PSMA-positive) was obtained from American Type Culture Collection (Manassas, Va.). Retrovirally transformed PSMA positive PC3-PIP cells and transfection controlled PC3-flu cells were obtained from Dr. […] (Laboratory of Gene Transfer and Gene Expression, Gene Transfer and Somatic Cell Engineering Facility, Memorial-Sloan Kettering Cancer Center, New York, N.Y.). Cells were grown at 37° C. and 5% CO2 under a humidified atmosphere. […] The mixture was centrifuged at 3,000 g for 5 min at 4° C., then washed three times with 500 μL of cold PBS. […] The concentration required to inhibit 50% of binding was determined (IC50) by Graph Pad Prism 3.0.

[2] = test system: PC3-pip (PSMA-positive) and PC3-flu (PSMA-negative) tumors; assay: Preoperative NIR imaging with the Maestro in vivo imaging system; design: species or system mice
Method: PC3-pip (PSMA-positive) and PC3-flu (PSMA-negative) cells were injected subcutaneously 1.0×10^6 PC3 cells with 200 µL of matrigel into each flank of 6 NOD SCID Gamma (NSG) mice. Chang et al., Cancer Res.; 59:3192-3198 (1999). After the tumors reached a size of ˜5 mm, the mice were anesthetized with isoflurane and were administered 2 or 10 nmol of PSMA-binding fluorescent conjugate via tail vein injection. Preoperative NIR imaging was performed using the Maestro in vivo imaging system (Cambridge Research and Instrumentation, Hopkinton, Mass.). The mice were imaged immediately and at 1-hour intervals after injection of the PSMA targeting fluorescent compound for up to 4 hours. The mice were killed once PSMA+ and PSMA− tumors could be visually differentiated by NIR imaging. The method used was CO2 asphyxiation followed by cervical dislocation.

[3] = test system: PC3-pip (PSMA-positive) and PC3-flu (PSMA-negative) tumors; assay: NIR fluorescence-guided robotic surgery (da Vinci Si); assay type: in vivo, mice
Text: Mouse carcasses were operated on using a da Vinci Si Robot (Intuitive Surgical, Sunnyvale, Calif.). A portable dark box was used to minimize ambient light and to allow optimal fluorescence detection. Three robotic instruments (the novel endoscope to detect NIR fluorescence, a scissor, and a grasper) were inserted through robotic trocars positioned across the top cover of the dark box. The tumors were excised using the new robotic camera to detect the fluorescence of the PSMA-binding conjugate. All procedures were done by a single surgeon (R.S.), who had extensive experience in robotic surgery. Tumor specimens were sent for histopathological analysis to assess margin status.

PSMA [4] = biological target: T1, PSMA; conditions: cited from earlier work; for (per patient) lesion detection rate: 37 patients with prostate cancer; for non-PSMA related background in humans, in words / lesion detection in humans, in words: early human trials
[5] = Biodistribution study of [Al^18F]5; assay type: in vivo, mice; conditions: male, NSG, mouse, total radioactivity
Method: (§1) Positron emission tomography and biodistribution study of [Al^18F]5: Male NSG mice at least 6 weeks old were subcutaneously implanted with two human PC3-PIP (PSMA+) tumor xenographs. When one of the tumors reached 0.5 mL in volume, imaging and biodistribution studies were conducted. For imaging, 0.3-0.4 mCi of [Al^18F]5 was injected via the tail vein. The mouse was anesthetized with isoflurane and imaged at 1 hour post injection on a clinical PET/CT scanner (Biograph mCT, Siemens Molecular Imaging, Hoffman Estates, Ill.) using super-resolution sampling and iterative deconvolution processing. For the biodistribution study without imaging, 50-150 μCi of [Al^18F]5 was injected in PC3-PIP tumor bearing mice which were sacrificed at one and two hours post injection for biodistribution measurements.

[6] = test system: PC3-PIP (PSMA+) tumor xenographs; assay: Biodistribution study of [Al^18F]5; assay type: in vivo, mice; conditions: for Biodistribution: Tumor (PC3PIP): preliminary
Method: as §1

[7] = published values, cited from earlier work; for Blood pool activity: 2 hours post injection; for liver background: at 2 hours
[8] = blood, read-out: Biodistribution: Blood
[9] = liver, read-out: Biodistribution: Liver

T1 sequence (Q04609 whole entry): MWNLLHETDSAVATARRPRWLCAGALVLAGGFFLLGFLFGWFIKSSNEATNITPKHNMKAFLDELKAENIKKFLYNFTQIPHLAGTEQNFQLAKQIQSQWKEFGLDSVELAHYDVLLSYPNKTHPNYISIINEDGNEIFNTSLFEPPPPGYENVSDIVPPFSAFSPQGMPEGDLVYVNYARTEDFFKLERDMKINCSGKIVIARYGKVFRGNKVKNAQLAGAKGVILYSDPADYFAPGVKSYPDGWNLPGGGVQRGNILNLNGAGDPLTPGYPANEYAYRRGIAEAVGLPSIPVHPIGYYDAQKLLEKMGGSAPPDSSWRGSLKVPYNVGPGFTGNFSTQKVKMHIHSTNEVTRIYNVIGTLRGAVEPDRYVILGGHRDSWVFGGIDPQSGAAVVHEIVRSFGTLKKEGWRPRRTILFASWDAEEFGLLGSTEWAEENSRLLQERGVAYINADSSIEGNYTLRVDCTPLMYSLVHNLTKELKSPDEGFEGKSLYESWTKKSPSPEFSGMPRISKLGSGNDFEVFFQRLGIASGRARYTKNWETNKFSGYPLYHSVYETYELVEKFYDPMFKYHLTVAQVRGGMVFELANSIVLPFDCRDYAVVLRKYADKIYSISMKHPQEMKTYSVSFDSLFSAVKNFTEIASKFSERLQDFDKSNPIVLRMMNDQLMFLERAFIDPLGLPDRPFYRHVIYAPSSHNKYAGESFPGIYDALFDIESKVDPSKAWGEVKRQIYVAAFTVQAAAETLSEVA

affinity for PSMA, comparison in words (PSMA [1]): same affinity for PSMA as compound 4
Compound: NC(=O)[C@H](CCCCNC(=S)Nc1ccc(CC2CN(CC(=O)O)CCN(CC(=O)O)CCN2CC(=O)O)cc1)NC(=O)[C@H](Cc1ccc(O)cc1)NC(=O)[C@H](CCC(=O)O)NC(=O)[C@H](CCC(=O)O)NC(=O)[C@H](CCC(=O)O)NC(=O)CCCCCNC(=O)CC[C@H](NC(=O)N[C@@H](CCC(=O)O)C(=O)O)C(=O)O (single isomer, unassigned) [Compound 5, E′E-Ahx-EEEYK(Bn-NOTA)-NH2]

Compound: ZJ-MCC-dEdEdEGK(IRDye800cw)G
mice with proper targeting on presurgical NIR imaging ([2]; 10 nmol): Two of the 3 mice
preoperative NIR fluorescence imaging result in words ([2]; Maestro in vivo imaging system): strong fluorescence signal from the tracer in the right flank (PSMA positive tumor), bladder, and urethra
time to detect peak fluorescence from the PSMA-positive tumors ([2]; first 3 mice, Maestro imaging system): 120 min
signal intensity from the tumor ([2]; within 240 minutes): already partially decreased
mice with fluorescence detected from the PSMA positive tumors during robotic surgery ([3]; 10 nmol, 120 minutes after injection): 2 of 3
intensity of fluorescence during robotic surgery ([3]; PSMA positive tumors): weak
fluorescence in the PSMA negative (control) tumors ([3]; mouse, in vivo): no tumor fluorescence was identified in any of the mice

IC50 (PSMA [1]; LNCaP or PC3-PIP cells, 12 nM [^3H] ligand, 1 hour at 37° C., 95% confidence intervals in parentheses): 2.2 nM
Compound: O=C(O)CC[C@H](NC(=O)N[C@@H](CSC1CC(=O)N(CC2CCC(C(=O)NCCCCCC(=O)N[C@H](CCC(=O)O)C(=O)N[C@H](CCC(=O)O)C(=O)N[C@H](CCC(=O)O)C(=O)NCC(=O)O)CC2)C1=O)C(=O)O)C(=O)O (stereo partly shown) [Compound 1, ZJ-MCC-Ahx-dEdEdEG]
affinity for PSMA, comparison in words (PSMA [1]): affinity comparable to the parent urea ligand; also recorded: Neither compound came close to matching the affinity of RBI-1033

Compound: O=C([O-])CN(CCN(CC(=O)[O-])Cc1cc(CCC(=O)NCCCCCC(=O)NCCCC[C@H](NC(=O)N[C@@H](CCC(=O)O)C(=O)O)C(=O)O)ccc1[O-])Cc1cc(CCC(=O)O)ccc1[O-].[68Ga+3].[OH3+] [Glu-NH—CO—NHLys(Ahx)-[^68Ga(HBED-CC)]]
(per patient) lesion detection rate (PSMA [4]; at PSA <2.2 ng/ml): 60%
(per patient) lesion detection rate (PSMA [4]; at PSA >2.2 ng/ml): 100%
non-PSMA related background in humans, in words (PSMA [4]): significant uptake in salivary glands, lacrimal glands, and liver

affinity for PSMA, comparison in words (PSMA [1]): equivalent to compound 1
Compound: NC(=O)[C@H](CS)NC(=O)CNC(=O)CNC(=O)CNC(=O)[C@H](Cc1ccc(O)cc1)NC(=O)CNC(=O)[C@@H](CCC(=O)O)NC(=O)[C@@H](CCC(=O)O)NC(=O)[C@@H](CCC(=O)O)NC(=O)CCCCCNC(=O)C1CCC(CNC(=O)CC[C@H](NC(=O)N[C@@H](CCC(=O)O)C(=O)O)C(=O)O)CC1 (stereo partly drawn) [Compound 3, E′E-Amc-Ahx-dEdEdEGYGGGC-NH2] ({Glu-CO-γGlu}-[X1][Ahx][dE][dE][dE]GYGGGC-NH2)

tissue uptake at 1 h [5, 8]: ~0.18 %ID/g
tissue uptake at 2 h [5, 8]: 0.04 %ID/g
tissue uptake at 2 h ([5]; bone, read-out: Biodistribution: Bone): 0.1 %ID/g
tissue uptake at 1 h [5, 9]: ~0.4 %ID/g
tissue uptake at 2 h [5, 9]: 0.17 %ID/g
tissue uptake at 2 h ([5]; muscle, read-out: Biodistribution: Muscle): 0.01 %ID/g
tissue uptake at 2 h ([5]; tumor (PC3-PIP), n = 6, preliminary, read-out: Biodistribution: Tumor (PC3PIP)): 4.6 %ID/g
Biodistribution: Blood ([6]; 1 hour): 0.18% ± 0.09%
Biodistribution: Bone ([6]; 1 hour): 0.39% ± 0.28%
Biodistribution: Heart ([6]; 1 hour): 0.14% ± 0.11%
Biodistribution: Kidney ([6]; 1 hour): 16.82% ± 5.60%
Biodistribution: Liver ([6]; 1 hour): 0.41% ± 0.10%
Biodistribution: Lung ([6]; 1 hour): 0.21% ± 0.05%
Biodistribution: Muscle ([6]; 1 hour): 0.19% ± 0.12%
Biodistribution: Small Intestine ([6]; 1 hour): 0.43% ± 0.51%
Biodistribution: Spleen ([6]; 1 hour): 0.29% ± 0.14%
Biodistribution: Stomach ([6]; 1 hour): 0.10% ± 0.03%
Biodistribution: Thyroid ([6]; 1 hour): 0.11% ± 0.02%
Biodistribution: Tumor (PC3PIP) ([6]; 1 hour, n = 4): 6.91% ± 1.44%
Biodistribution: Heart ([6]; 2 hour): 0.04% ± 0.01%
Biodistribution: Kidney ([6]; 2 hour): 5.96% ± 2.17%
Biodistribution: Lung ([6]; 2 hour): 0.07% ± 0.04%
Biodistribution: Small Intestine ([6]; 2 hour): 0.18% ± 0.02%
Biodistribution: Spleen ([6]; 2 hour): 0.10% ± 0.04%
Biodistribution: Stomach ([6]; 2 hour): 0.03% ± 0.02%
Biodistribution: Thyroid ([6]; 2 hour): 0.05% ± 0.00%
Tumor:blood ([6]; 2 hour): 115
Tumor:bone ([6]; 2 hour): 46
Tumor:liver ([6]; 2 hour): 27
Tumor:muscle ([6]; 2 hour): 458
Tumor:spleen ([6]; 2 hour): 46
Biodistribution: Tumor (PC3PIP) ([6]; 2 hour, n = 6): 4.58% ± 0.55%
excretion in words ([6]; mouse, in vivo): very fast renal excretion
Compound: NC(=O)[C@H](CCCCNC(=S)Nc1ccc(CC2CN(CC(=O)O)CCN(CC(=O)O)CCN2CC(=O)O)cc1)NC(=O)[C@H](Cc1ccc(O)cc1)NC(=O)[C@H](CCC(=O)O)NC(=O)[C@H](CCC(=O)O)NC(=O)[C@H](CCC(=O)O)NC(=O)CCCCCNC(=O)CC[C@H](NC(=O)N[C@@H](CCC(=O)O)C(=O)O)C(=O)O (single isomer, unassigned) [[Al^18F]5]
dissociation of ^18F-fluoride from the complex (from bone uptake) ([6]; mouse, in vivo): no significant dissociation of ^18F-fluoride from the complex

Compound: O=C(O)CC[C@H](NC(=O)N[C@@H](CCCCNC(=O)c1ccc([18F])nc1)C(=O)O)C(=O)O [^18F-DCFPyL]
Blood pool activity [7]: 0.4 % ID/g
liver background [7]: 2.1 % ID/g

Compound: O=C(O)CC[C@H](NC(=O)N[C@@H](CSCc1ccc([18F])cc1)C(=O)O)C(=O)O [^18F-DCFBC]
lesion detection in humans, in words (PSMA [4]): detected lymph node and bone metastases at 2 hr post injection
non-PSMA related background in humans, in words (PSMA [4]): elevated liver background and unexpected blood pool retention
Blood pool activity [7]: 0.4 % ID/g
liver background [7]: 2.1 % ID/g

Compound: O=C(O)CC[C@H](NC(=O)N[C@@H](CCCCNC(=O)Nc1ccc([123I])cc1)C(=O)O)C(=O)O [^123I-MIP-1095]
lesion detection in humans, in words (PSMA [4]): detection of soft tissue and bone metastases, as well as tumors in the prostate bed
non-PSMA related background in humans, in words (PSMA [4]): significant uptake in salivary glands, lacrimal glands, and liver

Compound: O=C(O)CC[C@H](NC(=O)N[C@@H](CCCCNCc1ccc([123I])cc1)C(=O)O)C(=O)O [^123I-MIP-1072]
lesion detection in humans, in words (PSMA [4]): detection of soft tissue and bone metastases, as well as tumors in the prostate bed
non-PSMA related background in humans, in words (PSMA [4]): significant uptake in salivary glands, lacrimal glands, and liver
Blood pool activity [7]: 0.21 % ID/g
liver background [7]: 2.17 % ID/g

Compound: O=C(O)CC[C@H](NC(=O)N[C@@H](CSC1CC(=O)N(CC2CCC(C(=O)NCCCCCC(=O)N[C@@H](Cc3ccc(O)cc3)C(=O)N[C@@H](Cc3ccc(O)cc3)C(=O)N[C@@H](Cc3ccc(O)cc3)C(=O)NCC(=O)O)CC2)C1=O)C(=O)O)C(=O)O (stereo partly shown) [Compound 2, ZJ-MCC-Ahx-YYYG]
affinity for PSMA, comparison in words (PSMA [1]): affinity comparable to the parent urea ligand; also recorded: Neither compound came close to matching the affinity of RBI-1033
